What all share (assay type): cell-based
In assay [1] the test system is human oral cancer cells OECM-1. Briefly: Cell cycle distribution, PI staining by flow cytometry. Particulars: 10˜20 μg/ml, 24 h. The method, then: (§1) Human oral cancer cell line OECM-1 cells were incubated for 24 h with ginsenoside M1 (10˜20 μg/ml), 50 μM cistaplatin (CDDP) or vehicle (0.1% DMSO). (FIG. 3A) The apoptotic DNA breaks was assayed by terminal deoxynucleotidyl transferase dUTP nick end labeling (TUNEL) assay using flow cytometry. (FIG. 3B) The cell cycle distribution was determined by PI staining using flow cytometry. (FIG. 3C) The apoptosis level was measured by PI/Annexin V double staining assay using flow cytometry. (FIG. 3D) The activation levels of caspase-9 and caspase-3 were measured by detecting the degradation of pro-caspase-9 and pro-caspase-3 using Western blotting. […] (One-way ANOVA with Dunnett's multiple comparisons test).
(§2) To gain further insight into the mode of action of ginsenoside M1, three assays targeting hallmarks of apoptosis, namely (1) the apoptotic DNA breaks assayed by terminal deoxynucleotidyl transferase dUTP nick end labeling (TUNEL) assay, (2) the cell cycle assayed by flow cytometry after propidium iodide (PI)-staining nuclei, (3) the PI/Annexin V double staining assay, and (4) caspase activation were performed. Plate 1×10^6 human oral cancer cells OECM-1 per 6-cm dish in 2 ml of culture medium and were grown overnight at 37° C. in a 5% CO2 incubator. The cells were incubated for 24 h with ginsenoside M1 (10˜20 μg/ml), 50 μM cistaplatin (CDDP) or vehicle. Each group contains a final DMSO concentration of 0.1%. Thereafter, three assays were performed. […] The cells in sub-G1 phase increased after treatment with ginsenoside M1 and CDDP. (FIG. 3B). […] The data were expressed as mean±SD; n=3. ** and *** indicate a significant difference at the level of p<0.01 and p<0.001, respectively, compared to vehicle-control cells. (One-way ANOVA with Dunnett's multiple comparisons test).
(In general: In flow cytometry, cells or beads pass a laser one at a time.)

The test system of assay [2] is human oral cancer cells OECM-1. The assay is described as follows: PI/Annexin V double staining assay by flow cytometry. Particulars: 24 h. The method, then: as §1, §2
Assay [3] relates to human oral cancer SAS cells. Briefly: Caspase-9 and caspase-3 activation, degradation of pro-caspases by Western blotting. To be noted: 10˜20 μg/ml, 24 h. In general terms: A western blot detects proteins with antibodies after separation by electrophoresis.
Assay [4] relates to human oral cancer cells SAS. Briefly: Colony formation of SAS cells. Particulars: 5˜20 μg/ml, 10 days. The method, then: FIGS. 4A-4B show ginsenoside M1 reduced the colony formation ability of human oral cancer cells. Human oral cancer cell line SAS cells (FIG. 4A) or OECM-1 cells (FIG. 4B) were incubated for 10 days with ginsenoside M1 (5˜20 μg/ml) or vehicle (0.1% DMSO). The cells were fixed in 4% ice-cold paraformaldehyde and stained with 0.1% crystal violet, and the colonies were counted. The data were expressed as mean±SD; n=4. * and *** indicate a significant difference at the level of p<0.05 and p<0.001, respectively, compared to vehicle-control cells. (One-way ANOVA with Dunnett's multiple comparisons test).
Plate 150 human oral cancer cells SAS or OECM-1 per 6-cm dish in 3 ml of culture medium and were grown overnight at 37° C. in a 5% CO2 incubator. The cells were incubated for 10 days with ginsenoside M1 (5˜20 μg/ml) or vehicle. The cells were changed for fresh medium containing the same concentration of ginsenoside M1 at day 5. The cells were fixed in 4% ice-cold paraformaldehyde for 15 min at […], and stained with 0.1% crystal violet 10 min at room temperature. […] The data were expressed as mean±SD; n=4. * and *** indicate a significant difference at the level of p<0.05 and p<0.001, respectively, compared to vehicle-control cells. (One-way ANOVA with Dunnett's multiple comparisons test).

Structures are written as SMILES.

As to `CC(C)=CCC[C@](C)(O[C@@H]1OC(CO)[C@@H](O)[C@@H](O)C1O)[C@H]1CC[C@]2(C)C1[C@H](O)CC1[C@@]3(C)CC[C@H](O)C(C)(C)C3CC[C@]12C` (stereo partly drawn) [ginsenoside M1, 20-O-β-D-glucopyranosyl-20(S)-protopanaxadiol], the “cells in sub-G1 phase” value in assay [1] is “increased”. Besides, in assay [1] (vs control cells), the “cells in G1 phase” value was “increased in a concentration-dependent manner”; the “percentage of cells in S and G2/M phase” value is listed as “decreasing”. The “percentage of OECM-1 cells with PI/Annexin V double positive staining” value in assay [2] (10 μg/ml) is given as “not 10 μg/ml ginsenoside M1 significantly increased”. Also, the “percentage of OECM-1 cells with PI/Annexin V double positive staining” value in assay [2] (20 μg/ml) is recorded as “significantly increased”. For the same compound, in assay [3], the “precursor of caspase-3 (pro-caspase-3) level” value was “decrease of the precursors of caspase-3 and caspase-9 in a dose-dependent manner”; the “precursor of caspase-9 (pro-caspase-9) level” value is “decrease of the precursors of caspase-3 and caspase-9 in a dose-dependent manner”. Also, in assay [4], the “colony formation ability of SAS cells” value was “dose-dependently inhibited”.

The values above are taken from patent publication US11524021B2, “Use of ginsenoside M1 for manufacturing medicament for treating oral cancer” (priority 2018, dated 2022).
